“Also recorded” adds a separate entry of the source.
Key:
[1] = target: M. mazei PylRS (wild-type) (Methanosarcina mazei, UniProt Q8PWY1); type: biochemical; settings: 37 degrees Celsius 1 h; 0.5 M Lys; 100 mM Ac-Lys; 1 mM Boc-Lys; 1 mM Aloc-Lys; 10 mM Nic-Lys; 7 mM Nma-Lys; 3.5 mM Z-Lys; 1 mM pyrrolysine
[2] = test system: GST gene with amber codon (TAG) at the 25th from N terminus, E. coli BL21 (DE3); type: cell-based; settings: for incorporation into a protein with wild-type PylRS: E. coli cells; for expression of 28-kDa GST protein: mutant PylRS (Y384F) and tRNA^Pyl, 4 mM amino acid
Source text: In order to confirm whether amber suppression (amber mutation suppression) occurs in E. coli cells, the glutathione S-transferase (GST) gene whose tyrosine codon at the 25th from N terminus was mutated to the amber codon (TAG) was cloned into a pET system plasmid. On the other hand, the wild-type and a variety of mutant PylRS genes, as well as tRNA^Pyl genes were cloned into a pACYX system plasmid (see FIG. 6). These two expression vectors were transformed to E. coli BL21 (DE3) to statically culture overnight on LB agar medium including kanamycin and ampicillin. […] Incubation was conducted overnight to induce expression before E. coli cells were harvested to detect expressed GST using SDS-PAGE. […] (SEQ ID NO: 17) (m/z=1327.72 Da) (see FIG. 10).
The same plasmid pTK2-1 as Example 1 was used for expressing PylRS mutant with double amino acid substitutions of Y306A and Y384F and tRNA^Pyl in E. coli cells. Incorporation of a lysine derivative into GST having amber codon at 25th from its N-terminus using this plasmid was performed according to the same method as Example 1. Moreover, specific incorporation of AzZLys [purchased from Shinsei Chemical Company Ltd. (Osaka)] into the amber site in GST using the same plasmid was also performed according to the same method as Example 1. Subsequently, crude extract obtained from E. coli cells in which the GST amber gene was expressed was separated with SDS-PAGE and stained. […] Furthermore, purification of GST was performed with the same method as Example 1.

[3] = test system: GRB2 amber gene, HEK c-18 cell
Source text: (§1) For expressing PylRS (Y306A, Y384F) mutant and tRNA^P1 in HEK c-18 cell, the system disclosed in the above-mentioned Non-Patent Document 7 was used. Likewise, the mutant gene into which the amber codon was incorporated at the cording region of lac Z gene and GRB2 gene, and the expression system thereof, as disclosed in the above-mentioned Non-Patent Document 7, were used.

[4] = test system: lacZ amber gene, HEK c-18 cell
Source text: as §1
First, in the animal cells, optimal concentration of AzLys for site-specific incorporation of AzLys into the protein was determined. In media containing 0, 0.01, 0.025, 0.05, 0.1, 0.25 and 0.5 mM of AzZLys, LacZ protein was expressed from the lacZ amber gene to determine the level of expression (relative value) of LacZ with coloring reaction by LacZ. […] In FIG. 17, WT represents the level of expression (relative value) of wild-type (WT) lacZ without any amber codon in the coding region.

GST = settings: FITC-PP3; ca. 37 degrees Celsius for 1 hour (not at ca. 4 degrees Celsius overnight)
Protocol: A conjugate of fluorophore and triarylphosphine, and the purified full length GST were linked by Staudinger-Bertozzi reaction. As a conjugate, the conjugate with FITC (hereinafter referred to as FITC-PP3) (purchased from Shinsei Chemical Company Ltd.) was used. […] Linkage reaction was performed under two types of reactive conditions, i.e., at ca. 37 degrees Celsius for 1 hour (lhr) and at ca. 4 degrees Celsius overnight (O/N). Subsequently, these GST were separated by SDS-PAGE to detect fluorescence with UV light. […] As to the Staudinger-Bertozzi reaction, see the above-mentioned Non-Patent Documents 5, 6, etc.

M. mazei PylRS (wild-type), sequence (Q8PWY1 whole entry E444G, looked up): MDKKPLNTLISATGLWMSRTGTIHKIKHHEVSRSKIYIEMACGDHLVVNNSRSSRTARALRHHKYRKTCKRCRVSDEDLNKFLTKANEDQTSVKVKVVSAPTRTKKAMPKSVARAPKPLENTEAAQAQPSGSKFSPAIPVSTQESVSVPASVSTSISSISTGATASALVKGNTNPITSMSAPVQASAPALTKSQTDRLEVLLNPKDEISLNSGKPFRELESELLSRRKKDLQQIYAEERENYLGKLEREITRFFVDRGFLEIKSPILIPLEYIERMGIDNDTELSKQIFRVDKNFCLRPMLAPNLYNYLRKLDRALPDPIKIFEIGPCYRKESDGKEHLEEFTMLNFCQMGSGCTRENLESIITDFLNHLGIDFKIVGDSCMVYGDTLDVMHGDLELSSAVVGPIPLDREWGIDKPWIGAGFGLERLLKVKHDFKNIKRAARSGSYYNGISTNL

## CC(=O)NCCCC[C@H](N)C(=O)O [Ac-Lys, N^ε-acetyl-L-lysine]
[1]
  activation of amino acid / esterification of tRNA^Pyl by wild-type PylRS: esterified

## N[C@@H](CCCCNC(=O)OCc1ccccc1)C(=O)O [Z-Lys, N^ε-benzyloxycarbonyl-L-lysine]
[1]
  activation of amino acid / esterification of tRNA^Pyl by wild-type PylRS: merely weakly activated; also recorded: esterified
[2]; double mutant PylRS (Y384F/Y306A) and tRNA^Pyl, 5 mM Z-Lys
  production of full length GST protein: produced
[2]
  incorporation into a protein with wild-type PylRS: cannot be incorporated into a protein

## CC(C)(C)OC(=O)N[C@@H](CCCCN)C(=O)O [Boc-Lys, tert-butyloxycarbonyl-lysine]
[1]
  activation of amino acid / esterification of tRNA^Pyl by wild-type PylRS: activated at a concentration of 1 mM, as efficiently as pyrrolysine
[2]
  expression of 28-kDa GST protein: expressed
  incorporation into a protein with wild-type PylRS: could not efficiently be incorporated

## C=CCOC(=O)N[C@@H](CCCCN)C(=O)O [Aloc-Lys, allyloxycarbonyl-lysine]
[1]
  activation of amino acid / esterification of tRNA^Pyl by wild-type PylRS: activated at a concentration of 1 mM, as efficiently as pyrrolysine
[2]
  expression of 28-kDa GST protein: expressed

## [N-]=[N+]=Nc1ccc(C[C@H](N)C(=O)O)cc1 [AzF, para-azide-phenylalanine]
[3]; AzFRS system, AzFRS also modified with fluorescence concurrently
  Grb2 modified with fluorescence: modified with fluorescence

## CNc1ccccc1C(=O)NCCCC[C@H](N)C(=O)O [Nma-Lys, N^ε-(N-methyl-anthraniloyl)-L-lysine]
[1]
  activation of amino acid / esterification of tRNA^Pyl by wild-type PylRS: esterified

## [N-]=[N+]=Nc1ccccc1COC(=O)NCCCC[C@H](N)C(=O)O [AzZLys, N^ε-Ortho-Azide-Benzyloxycarbonyl-Lysine]
[2]; PylRS mutant Y306A and Y384F and tRNA^Pyl, 1 mM AzZLys
  expression of the full length GST: detected merely in the case of the presence of 1 mM AzZLys
[4]; PylRS (Y306A, Y384F) and tRNA^Pyl, 0.05 mM AzZLys
  suppression efficiency (LacZ expression relative to wild-type lacZ): approximately 30 % of WT
[4]; tested 0, 0.01, 0.025, 0.05, 0.1, 0.25 and 0.5 mM
  concentration at which most efficiently incorporated into the amber site of lacZ: 0.05 mM
[3]; PylRS (Y306A, Y384F), tRNA^Pyl, FITC-PP3
  Grb2 protein labeled with fluorescence: detected merely in the case of aaRS (+), Grb2 (Am), tRNA (+) and a.a. (+)
GST
  fluorescence-modified GST: detected merely in the case of the reactive condition at ca. 37 degrees Celsius for 1 hour

## C[C@@H]1CC=N[C@H]1C(=O)NCCCC[C@H](N)C(=O)O [pyrrolysine, N^6-[(2R,3R)-3-methyl-3,4-dihydro-2H-pyrrole-2-ylcarbonyl]-L-lysine]
[1]
  activation of amino acid / esterification of tRNA^Pyl by wild-type PylRS: activates

— patent publication US9133449B2, “Mutant pyrrolysyl-tRNA synthetase, and method for production of protein having non-natural amino acid integrated therein by using the same” (priority 2007, dated 2015)
